{"source": "patent US8343539B2", "about": "“Compounds that bind α5β1 integrin and methods of use” (Regents of the University of Minnesota, priority 2006, dated 2013)", "key": {"HUVECs [1]": {"system": "HUVECs", "test": "HUVEC adhesion timed experiments on LB membranes (Example 2)", "type": "cell-based, human", "experimental": "Surface preparation: Each peptide-amphiphile was used to form homogenous LB membranes as in previous work (Kokkoli Langmuir 2004; 20:2397-2404), except that both the water and 15 mm mica disks used had been autoclaved for sterility. All depositions were done at a surface pressure between 41 and 47 mN/m, well below the collapse pressure and in the liquid-condensed or solid phase. Approximately 90 minutes before cells were seeded on the LB films to begin cell adhesion experiments, mica surfaces were transferred into 1× phosphate buffered saline (PBS), with particular care taken to ensure films were not exposed to air. After 5-10 minutes of equilibration, surfaces were transferred into 24-well plates containing a supplemented MCDB-131 basal media (Sigma), as described in Example 1. Following surface transfer, 24-well plates were moved to a 37° C., 5% CO2 incubator for 45-60 minutes. As a control, 22 mm diameter human fibronectin-coated coverslips (BD Biosciences), referred to as FN, were put into 12-well plates, covered with 2 ml of the supplemented media, and also incubated for 45-60 minutes.\nCell culture: Human umbilical vein endothelial cells, HUVECs (Cambrex Corporation), were cultured as described previously (see Example 1). Only cells from passage 3 were used in all studies.\nCell adhesion experiments: Flasks of HUVECs with at least 90% confluency were washed with 1×PBS, trypsinized with 0.25% Trypsin-EDTA (Fisher Scientific), and neutralized with 2% fetal bovine serum in MCDB-131 basal media. The suspended cells from all flasks were placed in one 50 ml centrifuge tube and centrifuged at 1000 rpm for 5 minutes. The media was removed and the cell pellet was resuspended in the supplemented media described above. A hemocytometer was used to count the cells and then 497 cells/mm^2 were seeded onto both LB and FN surfaces. Surfaces were incubated with cells at 37° C., 5% CO2 for 1, 4, or 12 hours. Cell adhesion following these times was determined using the CyQuant cell proliferation assay kit (Molecular Probes), which measures the fluorescence of a cellular nucleic acid-binding dye using the SpectraMAX GeminiXS plate reader (Molecular Devices). Standard calibration curves were created within each experiment for both 12- and 24-well plates."}, "HUVECs [2]": {"system": "HUVECs", "test": "Extracellular fibronectin production by HUVECs (Example 1)", "type": "cell-based, human", "experimental": "Cell spreading and fibronectin production experiments: Surface transferring, cell seeding, and incubation were done in the same manner as in the adhesion experiment, with a cell density of 497 cells/mm^2, and incubation times of 1, 12, 24, 48, and 72 hour. At the end of each incubation, the surfaces were removed, washed with […] of PBS, and fixed in 1 ml of 4% paraformaldehyde (Sigma) in PBS for 15 minutes at 37° C., 5% CO2. After washing with PBS, surfaces were first labeled for secreted fibronectin: surfaces were subjected to a blocking solution (0.1% BSA in PBS) for 30 minutes, incubated for 1 hour with a primary antibody specific for secreted fibronectin (mouse anti-human fibronectin (P1H11) monoclonal antibody (Chemicon Int.) at a 1:500 dilution in blocking solution, and then for 45 minutes with a secondary antibody (IgG fluorescein (FITC) conjugated antibody; Chemicon Int.) at a 1:200 dilution in PBS. As a final step, cell membranes and nuclei were stained using the Image-iT™ LIVE Plasma Membrane and Nuclear Labeling Kit following the manufacturer's protocol for labeling fixed cells (Molecular Probes). After final washing, surfaces were mounted onto glass slides and stored at 4° C. protected from light. An inverted fluorescent microscope (Nikon Eclipse TE200 with Pixcell II LCM) was used for imaging. Fibronectin production was assessed visually, by comparing 10-20 fluorescence images from two samples for each substrate (two independent experiments performed at different days). Cell spreading was quantified from two samples per substrate (two independent experiments performed at different days) by measuring cell area with the NIH imaging software."}, "integrin α5β1": {"target": "T1, integrin α5β1 (Homo sapiens, UniProt P05556+P08648)", "T1 construct": "endogenous in cells; host or cells: HUVEC (human umbilical vein endothelial cells)", "T1 sequence (P08648 42-894 limits assumed)": "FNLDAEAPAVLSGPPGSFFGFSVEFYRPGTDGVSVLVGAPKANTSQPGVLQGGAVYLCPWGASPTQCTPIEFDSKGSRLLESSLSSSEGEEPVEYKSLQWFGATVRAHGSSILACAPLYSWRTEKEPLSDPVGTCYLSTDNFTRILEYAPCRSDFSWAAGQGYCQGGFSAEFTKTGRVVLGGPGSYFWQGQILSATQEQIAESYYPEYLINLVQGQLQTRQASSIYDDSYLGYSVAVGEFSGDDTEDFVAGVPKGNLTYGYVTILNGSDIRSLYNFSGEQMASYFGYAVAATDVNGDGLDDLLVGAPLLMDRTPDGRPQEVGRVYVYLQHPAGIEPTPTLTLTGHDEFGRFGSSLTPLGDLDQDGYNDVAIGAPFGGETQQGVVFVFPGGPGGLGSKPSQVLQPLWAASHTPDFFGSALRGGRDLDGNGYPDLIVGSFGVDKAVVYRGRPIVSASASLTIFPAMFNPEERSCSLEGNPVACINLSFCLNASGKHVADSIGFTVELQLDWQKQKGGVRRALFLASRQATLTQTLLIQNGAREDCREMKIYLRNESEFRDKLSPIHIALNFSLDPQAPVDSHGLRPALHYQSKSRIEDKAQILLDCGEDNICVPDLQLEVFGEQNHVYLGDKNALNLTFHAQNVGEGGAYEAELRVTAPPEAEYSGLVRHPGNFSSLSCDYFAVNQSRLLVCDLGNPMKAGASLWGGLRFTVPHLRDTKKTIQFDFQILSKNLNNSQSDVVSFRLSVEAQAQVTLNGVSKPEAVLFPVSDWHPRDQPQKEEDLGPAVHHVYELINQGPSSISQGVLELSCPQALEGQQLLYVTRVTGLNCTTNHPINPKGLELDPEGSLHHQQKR", "T1 sequence (P08648 895-1049 partner limits assumed)": "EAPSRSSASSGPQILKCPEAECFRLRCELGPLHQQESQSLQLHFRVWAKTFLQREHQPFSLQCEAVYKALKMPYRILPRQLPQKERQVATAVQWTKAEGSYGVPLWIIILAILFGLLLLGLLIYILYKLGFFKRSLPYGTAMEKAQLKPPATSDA", "T1 sequence (P05556 21-798)": "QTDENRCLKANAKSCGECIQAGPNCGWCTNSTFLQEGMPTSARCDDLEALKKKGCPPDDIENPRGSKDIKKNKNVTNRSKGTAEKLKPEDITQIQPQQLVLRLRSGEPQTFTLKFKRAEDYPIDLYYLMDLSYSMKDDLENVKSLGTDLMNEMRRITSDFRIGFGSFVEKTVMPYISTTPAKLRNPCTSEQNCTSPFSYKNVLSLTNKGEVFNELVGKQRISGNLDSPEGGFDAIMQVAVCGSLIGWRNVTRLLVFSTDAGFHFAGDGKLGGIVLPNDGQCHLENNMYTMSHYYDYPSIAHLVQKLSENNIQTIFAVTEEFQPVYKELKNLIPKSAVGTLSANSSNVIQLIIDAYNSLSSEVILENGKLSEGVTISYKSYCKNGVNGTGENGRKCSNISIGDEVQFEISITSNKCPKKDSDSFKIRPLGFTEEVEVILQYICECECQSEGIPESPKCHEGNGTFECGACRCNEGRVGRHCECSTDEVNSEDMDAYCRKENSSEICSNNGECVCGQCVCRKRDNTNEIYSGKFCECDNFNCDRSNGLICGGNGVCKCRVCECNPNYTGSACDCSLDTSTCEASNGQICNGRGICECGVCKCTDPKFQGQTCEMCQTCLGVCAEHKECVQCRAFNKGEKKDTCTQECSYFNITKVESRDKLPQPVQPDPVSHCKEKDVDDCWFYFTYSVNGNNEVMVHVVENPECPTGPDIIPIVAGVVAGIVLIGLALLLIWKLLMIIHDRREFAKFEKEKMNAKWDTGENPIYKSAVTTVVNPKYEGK", "test": "Adhesion blocking with anti-integrin α5β1 antibody (JBS5)", "type": "cell-based", "conditions": "1 hour", "experimental": "Adhesion blocking experiments: Blocking experiments were done using mouse anti-human integrin […] (P1D6), β1 (P5D2), α5β1 (JBS5), and αvβ3 (LM609) monoclonal antibodies (Chemicon Int.). All surfaces were transferred to 24- or 12-well plates and pre-incubated in 0.1% BSA media as described above. HUVECs were prepared and counted as described in the cell adhesion protocol. Cells were blocked by mixing the cell suspension with the appropriate antibody in 0.1% BSA media, and incubating for 30 minutes at 37° C., 5% CO2 with constant agitation. Blocked cells were then released onto LB and FN surfaces and allowed to adhere for 1 hour at 37° C., 5% CO2. For all blocking experiments, cells were seeded at 249 cells/mm^2 (lower seeding density was used here to reduce the amount of antibodies needed to block cell adhesion) and a final antibody concentration in each well was 20 μg/ml. Following incubation, surfaces were washed, and adhered cells were quantified as described in the cell adhesion protocol."}, "HUVECs [3]": {"system": "HUVECs", "test": "Fibronectin production staining (Example 2)", "type": "cell-based, human", "conditions": "12 hours", "experimental": "Fibronectin production staining: Surface preparation, transfer, and cellular work were all done as described in the previous methods. Only surfaces incubated with cells for 12 hours were stained. The staining protocol, involving a primary antibody for secreted fibronectin (Chemicon), a FITC-conjugated secondary antibody (Chemicon), and the Image-iT LIVE plasma membrane and nuclear labeling kit (Molecular Probes), was done as previously described in Example 1. A single photon confocal microscope (Olympus FluoView FV1000) was used for imaging. Two slides per substrate were prepared each during 2 separate experiments and each slide was imaged 2-4 times. The final images chosen were all taken from one experiment for consistency, but were representative of the images obtained from both experiments."}}, "note": "“Also recorded” adds a separate entry of the source. Where no end group is shown, it is not given here. (C16)2 = not defined here", "data": [{"substance": "(C16)2-Glu-C2-KSSPHSRNSGSGSGSGSGRGDSP ({(C16)2-Glu-C2}-KSSPHSRNSGSGSGSGSGRGDSP; not fully specified; reading uncertain) [PR_b]", "values": [{"measurement": "HUVEC adhesion compared with FN, overall", "setting": "HUVECs [1]; 1, 4 and 12 hours", "result": "outperform the positive control fibronectin at all times; also recorded: better than FN at all times; also recorded: statistically better than both Pr_f and the control FN"}, {"measurement": "HUVEC adhesion compared with Pr_c", "setting": "HUVECs [1]; 1, 4 and 12 hours", "result": "significantly better than Pr_c at all times except 1 hour"}, {"measurement": "HUVEC adhesion compared with Pr_d", "setting": "HUVECs [1]; 1, 4 and 12 hours", "result": "better than Pr_d at all times except 4 hours"}, {"measurement": "HUVEC adhesion compared with Pr_f", "setting": "HUVECs [1]; 1, 4 and 12 hours", "result": "statistically better than both Pr_f and the control FN; also recorded: much better"}, {"measurement": "HUVEC adhesion level (description)", "setting": "HUVECs [1]; 1, 4 and 12 hours", "result": "excellent adhesion at all times; also recorded: highest level of adhesion"}, {"measurement": "HUVEC adhesion compared with Pr_e", "setting": "HUVECs [1]; 1 and 4 hours", "result": "no statistical difference"}, {"measurement": "HUVEC adhesion compared with Pr_e", "setting": "HUVECs [1]; 12 hours", "result": "outperforms Pr_e; also recorded: better than Pr_e"}, {"measurement": "Maintenance / decay of HUVEC adhesion over time", "setting": "HUVECs [1]; up to 12 hours", "result": "most consistent adhesion over 12 hours; also recorded: smallest amount of decay over 12 hours; also recorded: least drop-off between 4 and 12 hours; also recorded: least amount of decay"}, {"measurement": "Fibronectin secretion by adhered HUVECs", "setting": "HUVECs [2]; after 48 hours", "result": "fully covered with secreted fibronectin"}, {"measurement": "Amount of fibronectin secretion, PR_b versus FN", "setting": "HUVECs [2]; all times examined", "result": "comparable for both substrates"}, {"measurement": "reduction in cell adhesion compared to adhesion of non-blocked cells", "setting": "integrin α5β1; anti-α5β1 antibody 20 μg/ml, HUVECs 249 cells/mm^2", "result": "77.55±1.50", "unit": "%"}, {"measurement": "Integrin mediating HUVEC adhesion to the surface", "setting": "integrin α5β1; antibody blocking", "result": "α5β1-mediated; also recorded: specific for α5β1 integrins"}, {"measurement": "Fibronectin (ECM) production by adhered HUVECs", "setting": "HUVECs [3]", "result": "good fibronectin production"}]}]}
